Reference: article PMC10866962, “Molecular docking of bioactive compounds extracted and purified from selected medicinal plant species against covid-19 proteins and in vitro evaluation” (Scientific Reports, 2024)
Converted amounts (≈) assume the structure as drawn.

Columns and labels:
[1] = ABTS free radical scavenging assay; set-up: IC50 values in ABTS assay (Table 2): unit not given beside the values; settings: for free radical scavenging potential in ABTS assay: at 200 µg/mL; for IC50 value in ABTS assay / IC50 values in ABTS assay (Table 2): calculated by linear regression equation; for IC50 values in ABTS assay (Table 2): unit not given
[2] = DPPH free radical scavenging assay; settings: for IC50 in DPPH assay: calculated by linear regression equation; for antioxidant potential (free radical scavenging) in DPPH assay: at 200 µg/mL
Procedure: The DPPH assay was performed according to the protocol of Ghasemi et al.[40] with little modifications. For DPPH solution, 3 mg of DPPH powder was dissolved in 100 mL methanol. […] Different serial dilutions (25, 50, 100, and 200 μg/mL) were prepared. The 3 mL DPPH methanolic solution was added to 400 μL compounds methanolic solution. The mixture was continuously shaken and stored at room temperature under shade for exactly 30 min. The absorbance of reaction mixture was measured at 515 nm spectrophotometrically. […] The experiment was repeated three times and percentage inhibition was calculated as follows.

Klebsiella pneumoniae = assay: Agar well diffusion method; settings: for zone of inhibition at 600 µg/mL: 24 h; for zone of inhibition: compound solution 0.6 mg/mL, 40 μL per well, 24 h at 37 °C
Procedure: (§2) Antibacterial activity of compounds was determined by agar well diffusion method[42]. Antibacterial activity of different compounds was tested against seven clinical pathogens (Klebsiella pneumonia, Escherichia coli, Xanthomonas, S. aureus, Salmonella, P. aeruginosa and S. epidermitis). The nutrient agar medium was prepared by dissolving 6 g agar nutrient powder in 250 mL distilled water. The media was autoclaved and poured into pre-labeled petri plates under sterile condition. Then rinsed these plates with bacterial suspension before solidification. Allowed it to solidify for 15 min. Compound solution of 0.6 mg/mL was used. Cefixime with 1 mg/1 mL was used as positive control whereas DMSO was used as negative control. After solidification made wells of 6 mm using sterile cork borer. Each well was sealed with 20 μL of agar. After sealing 40 μL of each compound solution was added in well. The petri plates were sealed by para-film and kept in incubator for 24 h at 37 °C. The experiment was run in triplicates. The zone of inhibition of bacterial growth was measured with scale in mm.

brine shrimp nauplii = assay: Brine shrimp lethality assay (BSLA); settings: 24 h; for mortality at 200 µg/mL: read-out: mortality rate / cytotoxic effect in brine shrimp lethality assay; for mortality rate / cytotoxic effect in brine shrimp lethality assay: at highest 200 µg/mL concentration
Xanthomonas = assay: Agar well diffusion method; assay type: cell-based; settings: for zone of inhibition: compound solution 0.6 mg/mL, 40 μL per well, 24 h at 37 °C
Procedure: as §2

E. coli = assay: Agar well diffusion method; assay type: cell-based, Escherichia coli; settings: compound solution 0.6 mg/mL, 40 μL per well, 24 h at 37 °C
Procedure: (§1) Allowed it to solidify for 15 min. […] The experiment was run in triplicates.

P. aeruginosa = assay: Agar well diffusion method; assay type: cell-based; settings: compound solution 0.6 mg/mL, 40 μL per well, 24 h at 37 °C
Procedure: as §1

Salmonella = assay: Agar well diffusion method; assay type: cell-based; settings: compound solution 0.6 mg/mL, 40 μL per well, 24 h at 37 °C
Procedure: as §1

S. aureus = assay: Agar well diffusion method; assay type: cell-based; settings: for zone of inhibition: S. aureus, compound solution 0.6 mg/mL, 40 μL per well, 24 h at 37 °C
Procedure: as §1

Compound | free radical scavenging potential in ABTS assay [1] [%] | IC50 value in ABTS assay [1] [µg/mL] | IC50 values in ABTS assay (Table 2) [1] | IC50 in DPPH assay [2] [µg/mL] | mortality at 200 µg/mL (brine shrimp nauplii) [%] | other results
O=C1O[C@H]([C@@H](O)CO)C(O)=C1O [Ascorbic acid, reference compound] | 90 | 14.77 (≈ 83.9 µM) | 14.77 | 97.065 (≈ 551 µM) |  | 
O=c1c(O[C@@H]2O[C@H](CO)[C@@H](O)[C@H](O)[C@H]2O)c(-c2ccc(O)cc2)oc2cc(O)cc(O)c12 [Astragalin] | 78 |  | 49.41 | 100.9 (≈ 225 µM) | 55 | zone of inhibition at 600 µg/mL (Klebsiella pneumoniae): 26 mm
COc1ccc2c3c([nH]c2c1)C(C)=NCC3 [Harmaline] | 80.71 | 15.79 (≈ 73.7 µM) | 15.79 | 94.84 (≈ 443 µM) | 80 | zone of inhibition at 600 µg/mL (Xanthomonas; 24 h): 23 mm
COc1ccc2c(c1)[nH]c1c(C)nccc12 [Harmine] |  |  |  |  | 65 | 
O=C(c1ccc(O)cc1)c1c(O)cc(O)c([C@@H]2O[C@H](CO)[C@@H](O)[C@H](O)[C@H]2O)c1O [Irriflophenone-3-C-β-D-glucopyranoside] | 71 | 112.63 (≈ 276 µM) | 112.6 | 125 (≈ 306 µM) |  | zone of inhibition (E. coli): 34 mm; zone of inhibition (Klebsiella pneumoniae): 30 mm; zone of inhibition (Xanthomonas): 19 mm; zone of inhibition (P. aeruginosa): 8 mm; zone of inhibition (Salmonella): 31 mm; zone of inhibition (S. aureus): 28 mm; mortality rate / cytotoxic effect in brine shrimp lethality assay (brine shrimp nauplii): 65%
O=c1c2cc(O)c(O)cc2oc2c([C@@H]3O[C@H](CO)[C@@H](O)[C@H](O)[C@H]3O)c(O)cc(O)c12 [Isomangiferrin] | 62 | 124.19 (≈ 294 µM) | 124.2 | 93.86 (≈ 222 µM) |  | zone of inhibition (Klebsiella pneumoniae): 28 mm; zone of inhibition (P. aeruginosa): 5 mm; zone of inhibition (S. aureus): 32 mm; mortality rate / cytotoxic effect in brine shrimp lethality assay (brine shrimp nauplii): 55%; antioxidant potential (free radical scavenging) in DPPH assay [2]: 78.32%; IC50 in DPPH assay ([2]; listed as isomangiferrin): 93.85 µg/mL (≈ 222 µM)
O=c1c2cc(O)c(O)cc2oc2cc(O)c([C@@H]3O[C@H](CO)[C@@H](O)[C@H](O)[C@H]3O)c(O)c12 [Mangiferrin] | 73 | 110.33 (≈ 261 µM) | 110.3 | 110.4 (≈ 261 µM) | 50 | zone of inhibition at 600 µg/mL (E. coli; Escherichia coli): 15 mm; zone of inhibition at 600 µg/mL (Klebsiella pneumoniae): 32 mm; zone of inhibition at 600 µg/mL (P. aeruginosa; Pseudomonas aeruginosa): 10 mm; zone of inhibition at 600 µg/mL (Salmonella): 28 mm
CN1CCC[C@H]1c1cccnc1 [Nicotine, reference compound] |  |  |  |  | 100 | LD50 value in brine shrimp lethality assay (brine shrimp nauplii): 30.69 µg/mL
O=c1c2ccccc2nc2n1CC[C@@H]2O [PH-HM 17, vasicinone] |  |  | 101.6 | 124.9 (≈ 618 µM) |  | zone of inhibition (Xanthomonas): 22 mm
O=C(/C=C/c1ccc(O)cc1)OC[C@H]1O[C@@H](Oc2c(-c3ccc(O)cc3)oc3cc(O)cc(O)c3c2=O)[C@H](O)[C@@H](O)[C@@H]1O [Tiliroside] | 70 | 101.64 (≈ 171 µM) | 67.53 | 78.77 (≈ 132 µM) | 95 | zone of inhibition at 600 µg/mL (Klebsiella pneumoniae): 24 mm; LD50 value in brine shrimp lethality assay (brine shrimp nauplii): 73.59 µg/mL; antioxidant potential (free radical scavenging) in DPPH assay [2]: 77.77%; IC50 in DPPH assay ([2]; listed as tiliroside): 78.77 µg/mL (≈ 132 µM)
O[C@H]1CCN2Cc3ccccc3N=C12 [Vasicine] | 69 | 114.82 (≈ 610 µM) | 114.8 | 137.7 (≈ 732 µM) | 55 | zone of inhibition at 600 µg/mL (S. aureus; Staphylococcus aureus, 24 h): 22 mm
Quercitin-3-O rhamnoside [Quercitin-3-O-rhamnoside] |  |  |  | 185.27 |  | zone of inhibition (Klebsiella pneumoniae): 22 mm; IC50 in DPPH assay ([2]; listed as Quercetin-3-O- rahmnoside): 185.3 µg/mL
